Results reported in patent EP2271935B1, “METHOD AND KIT FOR THE EX VIVO EVALUATION OF THE RESPONSE OF A TUMOR TO CONDITIONS TO BE TESTED” (Universität Leipzig, priority 2008, dated 2009).

Test system: epithelial cell line KB (DSMZ ACC 136)
Assay: MTT assay of proliferation under varied riboflavin content and light exposure
Format: cell-based, human
Description: To address this question, three media, a) the RPMI 1640 without riboflavin and phenol red that is used in the method according to the invention and was manufactured according to our specifications by Biochrom, as well as two different RPMI 1640 charges purchased from Invitrogen which were each containing 532 nmol/L riboflavin, b) a phenol red-free (Gibco 11835), and c) a conventional RPMI 1640 (Gibco 21875) with 13.284 µmol/L phenol red. All media were supplemented with 2 mmol/L L-alanyl-1-glutamine as stabilized glutamine source (Biochrom K0302 Lot 0755 S) and the same amount of 10% (v/v) of heat-inactivated fetal calf serum (FCS) that was purchased from Invitrogen (Lot 41Q7554K) with a yield of 198 nmol/L riboflavin. […] These medium concentrations define the riboflavin concentrations in controls (see below).
In addition to the influences exerted by the different types of media alone, the riboflavin-dependent impact on the outcome of the docetaxel treatment was investigated. For this purpose 100 µl/well of docetaxel dilutions containing threefold the concentration indicated were added into the wells of microwell plates. The following seven docetaxel concentrations were tested: 19.38, 38.75, 77.5, 155, 310, 620, and 1,240 pmol/L.
To examine photoactivation-dependent riboflavin-mediated effects disturbing the outcome of ex-vivo chemoresponse-evaluation by conventional cell culture medium, and in particular in the absence of flavin-protecting experimental conditions, varying amounts of riboflavin were added. A stock solution of 200 µM (-)-riboflavin (CAS 83-68-5, Sigma R9504, FW=376.37 g/mol, purity >99%, cell culture tested) in phosphate buffered saline was diluted to adjust in each case the highest final concentration in culture (this means: after completion of the assay by addition of the other two components to the final assay volume of 300 µL) to exactly 10 µmol/L. Serial log10-dilutions were made from this concentration in each corresponding medium. These gave final concentrations in cell culture of 10.000, 1.018, 0.12, and 0.03 µmol/L in the case of medium a) (the medium according to the method of the invention), and concentrations of 10.000, 1.449, 0.594, and 0.508 µmol/L using media b) and c).
In general, each combination of riboflavin and docetaxel were tested in duplicate, and controls without additional riboflavin in quadruplicate for each experimental setting in the same 96-well plate. The experimental conditions were as follows: For each of the used media, two different plates were prepared simultaneously and either handled completely under flavin-protecting conditions (illumination only by sodium discharge lamps with an emission wavelength of 589 nm [i]), or in the same bench (Thermo MSC 12) with the installed light inside their working chamber switched on. The dilution of docetaxel and those of riboflavin in the particular medium were prepared for all four plates of each medium type prior to the other working steps under flavin-protecting conditions. Thus the administrations of these dilutions took about 20 min either under flavin-protecting conditions or illuminated conditions. After completed preparation of the plates that thereafter contained 200 µL of both diluted compounds, the plates were incubated 2 h in the incubator to allow for adjustment of the appropriate pH.
In between the stock culture of KB was harvested by trypsination of a 3-days stock culture (exponential growth phase). Stock cultures of KB cells always were grown without any antibiotic or antimycotic in phenol red- and riboflavin-free RPMI 1640 supplemented with 10% (v/v) FCS and were adapted to this medium for more than five passages. They were always handled at room temperature or warmer and were never exposed to light other than the light of a sodium discharge lamp with an emission wavelength of 589 nm for at least five passages. […]

Cc1cc2nc3c(=O)[nH]c(=O)nc-3n(C[C@H](O)[C@H](O)[C@H](O)CO)c2cc1C [riboflavin, (-)-riboflavin]
toxicity of riboflavin to KB cells (10 µmol/L riboflavin; plate 03, medium a), bench lighting below 30 min): complete die off of the KB cells
riboflavin concentrations leading to complete dying of all KB cells (exposed to daylight 30 min (plates 02, 04, 06, 08, 10, and 12)): above 594 nmol/L
